The subject of data set [1] is Escherichia coli ATCC 25922. The settings on record: radial diffusion assay, n = 3. The text has this: (§1) The reaction mixture without defensin added was used as negative control and the defensin alone was used as positive control. […] The strain Salmonella enterica serovar Typhimurium LT2 was kindly provided by Dr Benoît Doublet (INRA, UMR1282 ISP, Nouzilly, France). The strain Streptococcus salivarius was a clinical strain isolated from blood culture, kindly provided by Dr Christine Delorme (INRA, UMR1319 MICALIS, Jouy en Josas, France).
(§2) A Mann-Whitney non-parametric U test was used to compare the minimal inhibitory concentration of each defensin before and after incubation with cathepsins.

Data set [2] deals with Staphylococcus aureus ATCC 29740. To be noted: radial diffusion assay; defensin alone or reaction mixture after 4 h at 30°C with cathepsin (S:E molar ratio 100), 0.1 M sodium acetate pH 5.5, 2 mM DTT, 0.01% Brij35; mean ± SEM, n = 3; NI: no inhibition detected.
Text: as §1, §2

Data set [3] addresses Human Cat B (Homo sapiens, UniProt P07858). The settings on record: 12.5 μM defensin, 125 nM Cat B (S:E 100), 0.1 M sodium acetate pH 5.5, 2 mM DTT, 0.01% Brij35, 4 h, 30°C; RP-HPLC, 220 nm.
For data set [4], the target named is Human Cat H (Homo sapiens, UniProt P09668). The settings on record: 12.5 μM defensin, 125 nM Cat H (S:E 100), 0.1 M sodium acetate pH 5.5, 2 mM DTT, 0.01% Brij35, 4 h, 30°C; RP-HPLC, 220 nm.
The target in data set [5] is Human Cat K (Homo sapiens, UniProt P43235). The settings on record: 12.5 μM defensin, 125 nM Cat K (S:E 100), 0.1 M sodium acetate pH 5.5, 2 mM DTT, 0.01% Brij35, 4 h, 30°C; RP-HPLC, 220 nm.
Data set [6] has as its target Human Cat L (Homo sapiens, UniProt P07711). To be noted: 12.5 μM defensin, 125 nM Cat L (S:E 100), 0.1 M sodium acetate pH 5.5, 2 mM DTT, 0.01% Brij35, 4 h, 30°C; RP-HPLC, 220 nm.
Data set [7] addresses Human Cat S (Homo sapiens, UniProt P25774). The settings on record: 12.5 μM defensin, 125 nM Cat S (S:E 100), 0.1 M sodium acetate pH 5.5, 2 mM DTT, 0.01% Brij35, 4 h, 30°C; RP-HPLC, 220 nm.
Data set [8] has as its system trypsin. The settings on record: 12.5 μM defensin, 125 nM trypsin (S:E 100), 0.1 M Tris/HCl pH 8.0, 50 mM CaCl2, 100 mM NaCl, 4 h, 30°C; RP-HPLC, 220 nm.
Method: (§4) Chromatograms were analyzed by running the ChromoQuest Chromatography Workstation (Thermo Fisher Scientific, Les Ulis, France).
The test system of data set [9] is chymotrypsin. To be noted: 12.5 μM defensin, 125 nM chymotrypsin (S:E 100), 0.1 M Tris/HCl pH 7.8, 20 mM CaCl2, 4 h, 30°C; RP-HPLC, 220 nm.
Method: as §4
Data set [10] deals with Human neutrophil elastase (HNE) (Homo sapiens, UniProt P08246). The settings on record: 12.5 μM defensin, 125 nM HNE (S:E 100), 0.05 M HEPES pH 7.4, NP40 0.05%, 150 mM NaCl, 4 h, 30°C; RP-HPLC, 220 nm.
Method: as §4
Data set [11] concerns the target Human Cat D (Homo sapiens, UniProt P07339). The settings on record: 12.5 μM defensin, 125 nM Cat D (S:E 100), 0.1 M sodium citrate pH 3.5, 200 mM NaCl, 4 h, 30°C; RP-HPLC, 220 nm.
Method: as §4
Data set [12] deals with Listeria monocytogenes strain EGD. As to the kind of experiment: Radial diffusion antibacterial assay (MIC). The settings on record: Table 3, mean +/- SEM, n = 3. Format: cell-based. The procedure:
(§3) The antibacterial activity of purified AvBD2 and AvBD7 and of each enzyme-AvBD reaction mixture was measured by radial diffusion assay as described previously, allowing the determination of the minimal inhibitory concentration (MIC) against Staphylococcus aureus ATCC 29740 and against Escherichia coli ATCC 25922 as representative Gram-positive and Gram-negative strains, respectively. The reaction mixture without defensin added was used as negative control and the defensin alone was used as positive control. For AvBD7 and its major degradation product, MIC was determined towards three Gram-negative and three Gram-positive bacterial strains, respectively, including Pseudomonas aeruginosa ATCC 25010, Escherichia coli ATCC 25922, Salmonella enterica serovar Typhimurium LT2 ATCC 700720, Listeria monocytogenes strain EGD, Staphylococcus aureus ATCC 29740, and Streptococcus salivarius JIM 8780. The strain Salmonella enterica serovar Typhimurium LT2 was kindly provided by Dr Benoît Doublet (INRA, UMR1282 ISP, Nouzilly, France). The strain Streptococcus salivarius was a clinical strain isolated from blood culture, kindly provided by Dr Christine Delorme (INRA, UMR1319 MICALIS, Jouy en Josas, France).

The subject of data set [13] is Pseudomonas aeruginosa ATCC 25010. In words: Radial diffusion antibacterial assay (MIC). Format: cell-based. To be noted: Table 3, mean +/- SEM, n = 3. As for the experimental part: as §3
Data set [14] concerns Salmonella enterica serovar Typhimurium LT2 ATCC 700720. As to the kind of experiment: Radial diffusion antibacterial assay (MIC). In kind it is cell-based. The settings on record: Table 3, mean +/- SEM, n = 3. As for the experimental part:
as §3

Data set [15] concerns Streptococcus salivarius JIM 8780. As to the kind of experiment: Radial diffusion antibacterial assay (MIC). Format: cell-based. To be noted: Table 3, mean +/- SEM, n = 3. As for the experimental part: as §3
In data set [16] the test system is Cat D. As to the kind of experiment: 125 nM Cat D in 0.1 M sodium citrate buffer, pH 3.5, 200 mM NaCl. The settings on record: human, 30°C, up to 4 h.
In data set [17] the test system is chymotrypsin. As to the kind of experiment: 125 nM chymotrypsin in 0.1 M Tris/HCl buffer, pH 7.8, 20 mM CaCl2. To be noted: 30°C, up to 4 h.
The subject of data set [18] is trypsin. As to the kind of experiment: 125 nM trypsin in 0.1 M Tris/HCl buffer, pH 8.0, 50 mM CaCl2, 100 mM NaCl. To be noted: 30°C, up to 4 h.
In data set [19] the test system is Human neutrophil elastase (HNE). In words: 125 nM HNE in 0.05 M HEPES buffer, pH 7.4, NP40 0.05% 150 mM NaCl. The settings on record: 30°C, up to 4 h.
The test system of data set [20] is Cat H. As to the kind of experiment: 125 nM Cat H in 0.1 M sodium acetate buffer, pH 5.5 containing 2 mM DTT and 0.01% Brij35. The settings on record: human, 30°C, up to 4 h.
The subject of data set [21] is Cat B. As to the kind of experiment: 125 nM Cat B in 0.1 M sodium acetate buffer, pH 5.5 containing 2 mM DTT and 0.01% Brij35. To be noted: human, 30°C, up to 4 h.
For data set [22], the system named is Cat K. As to the kind of experiment: 125 nM Cat K in 0.1 M sodium acetate buffer, pH 5.5 containing 2 mM DTT and 0.01% Brij35. To be noted: human, 30°C, up to 4 h.
The subject of data set [23] is Cat L. As to the kind of experiment: 125 nM Cat L in 0.1 M sodium acetate buffer, pH 5.5 containing 2 mM DTT and 0.01% Brij35. The settings on record: human, 30°C, up to 4 h.
Data set [24] deals with Cat S. As to the kind of experiment: 125 nM Cat S in 0.1 M sodium acetate buffer, pH 5.5 containing 2 mM DTT and 0.01% Brij35. To be noted: human, 30°C, up to 4 h.

Where a SMILES comes first, the peptide text is derived from it.

Sequence of Human Cat H (P09668 98-335): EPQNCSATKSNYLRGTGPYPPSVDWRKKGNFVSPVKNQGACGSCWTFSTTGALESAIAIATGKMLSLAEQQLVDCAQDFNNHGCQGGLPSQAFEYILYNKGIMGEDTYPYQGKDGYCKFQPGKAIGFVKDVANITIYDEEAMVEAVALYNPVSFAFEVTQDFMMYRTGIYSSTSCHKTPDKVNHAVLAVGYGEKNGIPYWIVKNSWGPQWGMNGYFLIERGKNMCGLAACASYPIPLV
Sequence of Human Cat L (P07711 114-333): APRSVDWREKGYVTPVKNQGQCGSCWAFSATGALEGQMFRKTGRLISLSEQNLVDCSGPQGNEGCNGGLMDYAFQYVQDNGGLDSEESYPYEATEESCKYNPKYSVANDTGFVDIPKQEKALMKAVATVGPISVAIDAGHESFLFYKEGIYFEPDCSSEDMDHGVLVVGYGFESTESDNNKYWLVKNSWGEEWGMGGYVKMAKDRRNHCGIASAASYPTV
Sequence of Human neutrophil elastase (HNE) (Homo sapiens, UniProt P08246) (P08246 30-267): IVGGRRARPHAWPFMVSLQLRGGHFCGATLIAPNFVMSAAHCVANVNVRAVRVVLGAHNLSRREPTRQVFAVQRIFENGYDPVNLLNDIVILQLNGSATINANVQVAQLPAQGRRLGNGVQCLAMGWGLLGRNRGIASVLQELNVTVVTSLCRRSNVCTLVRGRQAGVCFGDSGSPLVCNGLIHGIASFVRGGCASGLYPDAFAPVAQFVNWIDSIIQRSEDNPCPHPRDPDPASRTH
Sequence of Human Cat K (P43235 115-329): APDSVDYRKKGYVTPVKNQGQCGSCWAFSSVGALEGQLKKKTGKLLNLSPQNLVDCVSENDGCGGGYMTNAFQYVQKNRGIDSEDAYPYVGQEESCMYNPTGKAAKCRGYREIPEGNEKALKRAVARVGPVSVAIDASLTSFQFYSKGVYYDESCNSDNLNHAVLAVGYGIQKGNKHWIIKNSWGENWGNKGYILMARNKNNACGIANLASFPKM
Sequence of Human Cat D (P07339 65-412): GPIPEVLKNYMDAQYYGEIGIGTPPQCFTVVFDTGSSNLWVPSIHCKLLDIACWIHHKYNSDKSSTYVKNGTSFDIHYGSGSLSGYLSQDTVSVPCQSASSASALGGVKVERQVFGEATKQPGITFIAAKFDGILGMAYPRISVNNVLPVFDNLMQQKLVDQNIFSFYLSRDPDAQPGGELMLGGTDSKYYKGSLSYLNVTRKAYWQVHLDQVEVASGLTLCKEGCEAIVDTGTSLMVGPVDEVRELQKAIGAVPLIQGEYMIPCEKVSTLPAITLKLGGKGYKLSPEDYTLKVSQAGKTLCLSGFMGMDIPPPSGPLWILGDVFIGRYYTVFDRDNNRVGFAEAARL
Sequence of Human Cat S (P25774 115-331): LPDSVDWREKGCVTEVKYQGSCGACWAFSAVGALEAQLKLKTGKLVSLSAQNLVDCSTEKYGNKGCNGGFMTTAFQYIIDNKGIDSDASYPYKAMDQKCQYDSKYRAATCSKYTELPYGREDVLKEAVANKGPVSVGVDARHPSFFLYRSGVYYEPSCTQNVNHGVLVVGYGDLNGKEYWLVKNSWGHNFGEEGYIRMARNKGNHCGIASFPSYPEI

For `CC[C@H](C)[C@@H]1NC(=O)[C@H](CC(C)C)NC(=O)[C@H](Cc2c[nH]cn2)NC(=O)[C@H](CO)NC(=O)[C@@H]2CCCN2C(=O)[C@@H]2CSSC[C@@H](C(=O)N[C@@H](CCCCN)C(=O)N[C@@H](Cc3c[nH]c4ccccc34)C(=O)N3CCC[C@H]3C(=O)N[C@@H](Cc3c[nH]c4ccccc34)C(=O)N[C@@H](CC(N)=O)C(=O)N[C@@H](C)C(=O)O)NC(=O)[C@@H]3CSSC[C@H](NC(=O)[C@H](Cc4ccccc4)NC(=O)[C@@H](N)CC(C)C)C(=O)N[C@@H](CCCCN)C(=O)NCC(=O)NCC(=O)N[C@@H](CO)C(=O)N[C@@H](CSSC[C@H](NC(=O)[C@H](CO)NC(=O)CNC(=O)[C@H](C(C)C)NC(=O)[C@H](CCCCN)NC1=O)C(=O)N[C@@H](Cc1ccccc1)C(=O)NCC(=O)N[C@@H](Cc1ccccc1)C(=O)N[C@@H](CCCNC(=N)N)C(=O)N[C@@H](CO)C(=O)N3)C(=O)N[C@@H](Cc1c[nH]cn1)C(=O)N[C@@H](Cc1ccccc1)C(=O)NCC(=O)NCC(=O)N2` [AvBD2] (HELM PEPTIDE1{L.F.C.K.G.G.S.C.H.F.G.G.C.P.S.H.L.I.K.V.G.S.C.F.G.F.R.S.C.C.K.W.P.W.N.A}$PEPTIDE1,PEPTIDE1,3:R3-29:R3|PEPTIDE1,PEPTIDE1,8:R3-23:R3|PEPTIDE1,PEPTIDE1,13:R3-30:R3$$$V2.0), in data set [1] (defensin alone or reaction mixture after 4 h at 30°C with cathepsin (S:E molar ratio 100), 0.1 M sodium acetate pH 5.5, 2 mM DTT, 0.01% Brij35, mean ± SEM, NI: no inhibition detected), the “MIC (μM) E. Coli” value was 3 ± 2 µM. Besides, in data set [2], the “MIC (μM) S. aureus” value stood at 1 ± 0 µM. Besides, in [3], the “Hydrolysis by Cat B” value is listed as “partially degraded”. In [4], the “Hydrolysis by Cat H” value is recorded as “resistant to hydrolysis”. In addition, the “Hydrolysis by Cat K” value in data set [5] is given as “totally digested”. In addition, the “Hydrolysis by Cat L” value in [6] is “partially degraded”. For the same compound, in [7], the “Hydrolysis by Cat S” value was “partially degraded”. Also, in [8], the Hydrolysis by trypsin result is “did not cleave”. Besides, the Hydrolysis by chymotrypsin result in data set [9] is reported as “did not cleave”. In data set [10], the “Hydrolysis by neutrophil elastase” value is recorded as “did not cleave”. Also, the “Hydrolysis by Cat D” value in data set [11] was “did not cleave”.

As for `CC[C@H](C)[C@H](N)C(=O)N1CCC[C@H]1C(=O)N[C@@H](CCCNC(=N)N)C(=O)N1CCC[C@H]1C(=O)N[C@H](C(=O)N[C@@H](CC(=O)O)C(=O)N[C@H](C(=O)N[C@H]1CSSC[C@@H]2NC(=O)[C@H](CO)NC(=O)CNC(=O)[C@H]([C@@H](C)CC)NC(=O)CNC(=O)[C@H](CC(N)=O)NC(=O)[C@H](CC(N)=O)NC(=O)[C@@H]3CSSC[C@H](NC(=O)[C@H]([C@@H](C)CC)NC(=O)CNC(=O)[C@H](CC(N)=O)NC(=O)[C@H](CCCNC(=N)N)NC(=O)[C@H](CC(C)C)NC(=O)[C@H](CCCNC(=N)N)NC1=O)C(=O)N[C@@H](Cc1ccccc1)C(=O)N1CCC[C@H]1C(=O)NCC(=O)N[C@@H]([C@@H](C)CC)C(=O)N[C@@H](CSSC[C@@H](C(=O)N[C@@H](C)C(=O)N[C@@H](CCCNC(=N)N)C(=O)NCC(=O)N[C@@H](Cc1c[nH]c4ccccc14)C(=O)N[C@@H](CCCNC(=N)N)C(=O)N[C@@H](CO)C(=O)O)NC2=O)C(=O)N[C@@H](CCCNC(=N)N)C(=O)N[C@@H](CCCNC(=N)N)C(=O)N1CCC[C@H]1C(=O)N[C@@H](Cc1ccc(O)cc1)C(=O)N[C@@H](Cc1ccc(O)cc1)C(=O)N[C@@H](Cc1c[nH]c2ccccc12)C(=O)N[C@@H]([C@@H](C)CC)C(=O)NCC(=O)N[C@@H]([C@@H](C)O)C(=O)N3)[C@@H](C)O)[C@@H](C)CC` [Ile4-AvBD7], the “MIC (μM) Escherichia coli” value in data set [1] (Table 3, mean +/- SEM) is listed as 0.5 (± 0.1) μM. Further, the “MIC (μM) Listeria monocytogenes” value in [12] was 0.2 (± 0.1) μM. For the same compound, in data set [13], the “MIC (μM) Pseudomonas aeruginosa” value is 0.2 (± 0.1) μM. For the same compound, the “MIC (μM) Salmonella Typhimurium” value in data set [14] is reported as 1.4 (± 0.9) μM. In addition, the “MIC (μM) Streptococcus salivarius” value in [15] is listed as 1.0 (± 0.5) μM.

For the compound LFCKGGSCHFGGCPSHLIKVGSCFGFRSCCKWPWNA, the not cleaved result in data set [16] is reported as “did not cleave (4 hours)”; in data set [17], “did not cleave (4 hours)”; in [18], “did not cleave (4 hours)”; in data set [19] it was “did not cleave (4 hours)”; in data set [20], “resistant to hydrolysis (4 h)”.

Consider “QPFIPRPIDTCRLRNGICFPGICRRPYYWIGTCNNGIGSCCARGWRS”, for which the not cleaved entry in data set [16] is “did not cleave (4 hours)”; in data set [17] it was “did not cleave (4 hours)”; in data set [18] it was “did not cleave (4 hours)”; in data set [19] it was “did not cleave (4 hours)”; in data set [21] it was “fully resistant to hydrolysis (4 h)”; in data set [20], “resistant to hydrolysis (4 h)”. In addition, the not cleaved entry in data set [23] and in [24] was “fully resistant to hydrolysis (4 h)” each time. Also, the cleaved bond entry in data set [22] was “Phe3-Ile4”.

(Values after publication PMC4999073 (PLoS ONE, 2016).)
